This note sets out measurements from BindingDB's records for doi:10.1016/0960-894X(95)00403-G (1995).

This test can be described thus: Compound was tested for inhibiting [3H]N-Methyl-scopolamine Binding to Muscarinic acetylcholine receptor M4 in NG 108-15 Cell.

The term Ki denotes the equilibrium dissociation constant of an inhibitor or competing ligand from its target. Molecule `C[N+]1(C)CCC2(CC1)OC(=O)C(c1ccccc1)(c1ccccc1)O2` came in with a Ki of 11 nM.
